Laboratory results: ChEMBL document CHEMBL4041472, “Curacin E from the Brittle Star Ophiocoma scolopendrina” (J Nat Prod, 2016)
Active and inactive are the calls of the source. No cut-off for these calls is given here.

Legend:
P388 = assay: Cytotoxicity against mouse P388 cells assessed as reduction in cell viability at >= 20 nM after 96 hrs by MTT assay; format: functional, cell-based
[1] = molecular target: T1, NAD-dependent protein deacetylase sirtuin-1 (Homo sapiens) (UniProt Q96EB6); assay: Inhibition of human SIRT1 expressed in Escherichia coli BL21(DE3) up to 50 uM using Ac-RHKK(Ac)-MCA as substrate after 60 mins in presence of NAD by fluorescence assay
T1 sequence (whole entry): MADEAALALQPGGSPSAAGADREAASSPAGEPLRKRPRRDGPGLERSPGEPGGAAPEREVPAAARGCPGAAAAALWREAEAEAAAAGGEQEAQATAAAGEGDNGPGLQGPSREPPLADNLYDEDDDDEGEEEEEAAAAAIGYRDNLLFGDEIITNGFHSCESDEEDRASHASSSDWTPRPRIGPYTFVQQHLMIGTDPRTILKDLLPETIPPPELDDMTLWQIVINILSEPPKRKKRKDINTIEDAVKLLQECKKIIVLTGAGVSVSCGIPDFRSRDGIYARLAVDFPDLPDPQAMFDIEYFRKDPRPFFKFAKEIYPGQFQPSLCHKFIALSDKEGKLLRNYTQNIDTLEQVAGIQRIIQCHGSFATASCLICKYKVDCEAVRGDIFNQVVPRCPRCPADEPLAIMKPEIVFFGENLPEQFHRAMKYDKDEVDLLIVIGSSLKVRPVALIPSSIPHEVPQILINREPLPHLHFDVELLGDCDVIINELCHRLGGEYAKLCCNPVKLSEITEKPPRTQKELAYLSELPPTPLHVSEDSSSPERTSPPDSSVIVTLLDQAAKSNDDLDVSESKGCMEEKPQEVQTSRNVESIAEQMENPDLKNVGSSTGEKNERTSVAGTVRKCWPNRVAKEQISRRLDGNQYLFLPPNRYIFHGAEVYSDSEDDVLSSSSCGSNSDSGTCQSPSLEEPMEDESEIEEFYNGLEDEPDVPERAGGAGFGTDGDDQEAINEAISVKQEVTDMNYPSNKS

[2] = molecular target: Histone deacetylase 1 (Homo sapiens) (UniProt Q13547); assay: Inhibition of human FLAG-tagged HDAC1 expressed in human 293T cells up to 50 uM using Ac-KGLGK(Ac)-MCA as substrate after 30 mins by fluorescence assay
Chain of Histone deacetylase 1 (Homo sapiens) (Q13547 whole entry): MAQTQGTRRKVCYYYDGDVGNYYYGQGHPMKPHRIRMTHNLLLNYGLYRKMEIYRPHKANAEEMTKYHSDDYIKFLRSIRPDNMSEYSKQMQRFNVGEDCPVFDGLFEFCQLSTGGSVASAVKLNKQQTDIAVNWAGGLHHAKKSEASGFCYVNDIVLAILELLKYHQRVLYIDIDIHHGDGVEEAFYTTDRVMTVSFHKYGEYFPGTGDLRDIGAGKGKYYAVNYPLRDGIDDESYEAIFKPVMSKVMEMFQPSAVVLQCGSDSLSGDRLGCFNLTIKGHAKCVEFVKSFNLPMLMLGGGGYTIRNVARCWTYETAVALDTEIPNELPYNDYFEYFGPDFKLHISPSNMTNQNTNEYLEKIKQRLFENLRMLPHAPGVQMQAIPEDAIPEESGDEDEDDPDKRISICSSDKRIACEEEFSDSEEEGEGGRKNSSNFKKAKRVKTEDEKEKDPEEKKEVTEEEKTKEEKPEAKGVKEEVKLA

[3] = molecular target: T2, Protein deacetylase HDAC6 (Mus musculus) (UniProt Q9Z2V5); assay: Inhibition of mouse FLAG-tagged HDAC6 expressed in human 293T cells coexpressing HDA2 up to 50 uM using Ac-KGLGK(Ac)-MCA as substrate after 30 mins by fluorescence assay; format: cell-based
T2 sequence (whole entry): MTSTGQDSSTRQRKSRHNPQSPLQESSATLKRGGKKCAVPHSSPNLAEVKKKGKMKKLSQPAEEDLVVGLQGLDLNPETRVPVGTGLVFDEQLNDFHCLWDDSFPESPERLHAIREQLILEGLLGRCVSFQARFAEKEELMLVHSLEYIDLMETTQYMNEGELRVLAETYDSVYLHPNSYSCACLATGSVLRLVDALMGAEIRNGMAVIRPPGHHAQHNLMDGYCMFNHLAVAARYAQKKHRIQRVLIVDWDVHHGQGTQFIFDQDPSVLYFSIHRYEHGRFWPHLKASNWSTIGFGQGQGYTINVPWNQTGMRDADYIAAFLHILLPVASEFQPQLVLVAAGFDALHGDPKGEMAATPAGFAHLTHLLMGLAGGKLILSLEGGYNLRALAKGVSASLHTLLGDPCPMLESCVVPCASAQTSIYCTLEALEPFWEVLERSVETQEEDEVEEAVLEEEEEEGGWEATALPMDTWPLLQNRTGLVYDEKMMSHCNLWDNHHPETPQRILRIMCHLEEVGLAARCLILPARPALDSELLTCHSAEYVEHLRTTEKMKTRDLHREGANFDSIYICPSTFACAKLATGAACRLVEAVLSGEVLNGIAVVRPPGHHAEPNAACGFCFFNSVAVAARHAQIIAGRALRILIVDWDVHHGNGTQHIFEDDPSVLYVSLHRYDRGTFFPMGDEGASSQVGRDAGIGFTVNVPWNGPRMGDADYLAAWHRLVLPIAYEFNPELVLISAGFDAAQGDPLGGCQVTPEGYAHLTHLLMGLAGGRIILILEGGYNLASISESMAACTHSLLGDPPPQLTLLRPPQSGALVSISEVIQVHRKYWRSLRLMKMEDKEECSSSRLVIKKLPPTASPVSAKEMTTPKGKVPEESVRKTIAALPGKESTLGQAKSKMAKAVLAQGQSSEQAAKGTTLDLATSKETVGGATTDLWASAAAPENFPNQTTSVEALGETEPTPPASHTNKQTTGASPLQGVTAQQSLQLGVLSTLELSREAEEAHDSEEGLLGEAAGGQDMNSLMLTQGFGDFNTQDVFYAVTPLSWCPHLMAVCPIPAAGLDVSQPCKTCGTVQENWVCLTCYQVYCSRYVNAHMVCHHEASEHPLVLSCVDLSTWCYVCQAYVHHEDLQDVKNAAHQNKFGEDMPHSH

inhibition [1]: inactive
inhibition [2]: inactive
inhibition [3]: inactive
Compound: CCC(=O)CC(CC/C=C/C=C/CC/C=C\[C@@H]1CSC([C@@H]2C[C@@H]2C)=N1)OC (some centres undefined)
Activity (P388): Active
